Measurements as given in ChEMBL document CHEMBL3885881, “DrugMatrix”.

Species: Rattus norvegicus
Format: toxicity, organism-based, Sprague-Dawley
Conditions: in vivo, 24 h, time 1 day; for ABSOLUTE BASOPHIL / ABSOLUTE EOSINOPHIL / ABSOLUTE LYMPHOCYTE / ABSOLUTE MONOCYTE / BASOPHIL / EOSINOPHIL / ERYTHROCYTE COUNT / HEMATOCRIT / HEMOGLOBIN / LEUKOCYTE COUNT / LYMPHOCYTE / MEAN CORPUSCULAR HEMOGLOBIN / MEAN CORPUSCULAR HEMOGLOBIN CONCENTRATION / MEAN CORPUSCULAR VOLUME / MONOCYTE / NEUTROPHIL / PLATELET COUNT / ABSOLUTE SEGMENTED NEUTROPHIL / NUCLEATED RED BLOOD CELLS: tissue Blood; for ALANINE AMINOTRANSFERASE / ALBUMIN / ALKALINE PHOSPHATASE / ASPARTATE AMINOTRANSFERASE / BLOOD UREA NITROGEN / CARBON DIOXIDE / CHLORIDE / CHOLESTEROL / CREATINE PHOSPHOKINASE / CREATININE / GLUCOSE / LACTATE DEHYDROGENASE / LIPASE / PHOSPHORUS / POTASSIUM / SODIUM / TOTAL BILIRUBIN / TOTAL PROTEIN / URIC ACID: tissue Plasma
[1] = po, 0 mg/kg, vehicle control, route oral GAVAGE, dose level Control, vehicle 100 % WATER
[2] = po, 120 mg/kg, route oral GAVAGE, dose level High, vehicle 100 % WATER
[3] = sc, 0 mg/kg, route mini-PUMP - SUBCUTANEOUS, dose level Control, vehicle 100 % SALINE
[4] = sc, […], route mini-PUMP - SUBCUTANEOUS, dose 0.77 mg/Kg, dose level High, vehicle 100 % SALINE

Description: DrugMatrix - Regimen: Single

COCCc1ccc(OCC(O)CNC(C)C)cc1 (centres undefined) [METOPROLOL]
ABSOLUTE BASOPHIL [1]: 63.3 cells/µL | ABSOLUTE EOSINOPHIL [1]: 66.7 cells/µL | ABSOLUTE LYMPHOCYTE [1]: 8010 cells/µL | ABSOLUTE MONOCYTE [1]: 240 cells/µL | BASOPHIL [1]: 0.6% | EOSINOPHIL [1]: 0.6% | ERYTHROCYTE COUNT [1]: 6.25 x10E6/uL | HEMATOCRIT [1]: 40.47% | HEMOGLOBIN [1]: 12.83 G/DL | LEUKOCYTE COUNT [1]: 10.19 x10E3/uL | LYMPHOCYTE [1]: 78.7% | MEAN CORPUSCULAR HEMOGLOBIN [1]: 20.53 pg | MEAN CORPUSCULAR HEMOGLOBIN CONCENTRATION [1]: 31.73 G/DL | MEAN CORPUSCULAR VOLUME [1]: 64.67 fL | MONOCYTE [1]: 2.5% | NEUTROPHIL [1]: 17.07% | PLATELET COUNT [1]: 1297 x10E3/uL | ALANINE AMINOTRANSFERASE [1]: 32.67 u/L | ALBUMIN [1]: 3.9 G/DL | ALKALINE PHOSPHATASE [1]: 374 u/L | ASPARTATE AMINOTRANSFERASE [1]: 64.33 u/L | BLOOD UREA NITROGEN [1]: 14 mg/dL | CARBON DIOXIDE [1]: 45.67 mmol/L | CHLORIDE [1]: 103 MEQ/L | CHOLESTEROL [1]: 82.67 mg/dL | CREATINE PHOSPHOKINASE [1]: 216.33 u/L | CREATININE [1]: 0.17 mg/dL | GLUCOSE [1]: 161.33 mg/dL | LACTATE DEHYDROGENASE [1]: 103.67 u/L | LIPASE [1]: 8.67 u/L | PHOSPHORUS [1]: 11 mg/dL | POTASSIUM [1]: 6.83 MEQ/L | SODIUM [1]: 144.67 MEQ/L | TOTAL BILIRUBIN [1]: 0.27 mg/dL | TOTAL PROTEIN [1]: 6.27 G/DL | URIC ACID [1]: 0.67 mg/dL | ABSOLUTE BASOPHIL [2]: 66.7 cells/µL | ABSOLUTE EOSINOPHIL [2]: 90 cells/µL | ABSOLUTE LYMPHOCYTE [2]: 8230 cells/µL | ABSOLUTE MONOCYTE [2]: 290 cells/µL | BASOPHIL [2]: 0.6% | EOSINOPHIL [2]: 0.9% | ERYTHROCYTE COUNT [2]: 6.76 x10E6/uL | HEMATOCRIT [2]: 44.17% | HEMOGLOBIN [2]: 14.1 G/DL | LEUKOCYTE COUNT [2]: 10.39 x10E3/uL | LYMPHOCYTE [2]: 79.03% | MEAN CORPUSCULAR HEMOGLOBIN [2]: 20.87 pg | MEAN CORPUSCULAR HEMOGLOBIN CONCENTRATION [2]: 31.9 G/DL | MEAN CORPUSCULAR VOLUME [2]: 65.33 fL | MONOCYTE [2]: 2.8% | NEUTROPHIL [2]: 16.1% | PLATELET COUNT [2]: 1170 x10E3/uL | ALANINE AMINOTRANSFERASE [2]: 33.33 u/L | ALBUMIN [2]: 3.83 G/DL | ALKALINE PHOSPHATASE [2]: 431 u/L | ASPARTATE AMINOTRANSFERASE [2]: 59 u/L | BLOOD UREA NITROGEN [2]: 13 mg/dL | CARBON DIOXIDE [2]: 38.67 mmol/L | CHLORIDE [2]: 103.33 MEQ/L | CHOLESTEROL [2]: 74 mg/dL | CREATINE PHOSPHOKINASE [2]: 229.33 u/L | CREATININE [2]: 0.3 mg/dL | GLUCOSE [2]: 178 mg/dL | LACTATE DEHYDROGENASE [2]: 77.67 u/L | LIPASE [2]: 8 u/L | PHOSPHORUS [2]: 12.3 mg/dL | POTASSIUM [2]: 6.47 MEQ/L | SODIUM [2]: 144 MEQ/L | TOTAL BILIRUBIN [2]: 0.23 mg/dL | TOTAL PROTEIN [2]: 6.2 G/DL | URIC ACID [2]: 0.9 mg/dL

CNCC(O)c1ccc(O)c(O)c1 (centres undefined) [RACEPINEPHRINE]
ABSOLUTE EOSINOPHIL [3]: 26.17 CELLS/uL | ABSOLUTE LYMPHOCYTE [3]: 10985.83 CELLS/uL | ABSOLUTE MONOCYTE [3]: 234.5 CELLS/uL | ABSOLUTE SEGMENTED NEUTROPHIL [3]: 1753.5 CELLS/uL | BASOPHIL [3]: 0% | EOSINOPHIL [3]: 0.17% | ERYTHROCYTE COUNT [3]: 5.64 x10E6/uL | HEMOGLOBIN [3]: 12.68 G/DL | LEUKOCYTE COUNT [3]: 13 x10E3/uL | LYMPHOCYTE [3]: 84.5% | MEAN CORPUSCULAR HEMOGLOBIN [3]: 22.5 pg | MEAN CORPUSCULAR HEMOGLOBIN CONCENTRATION [3]: 36.78 G/DL | MEAN CORPUSCULAR VOLUME [3]: 61.18 fL | NEUTROPHIL [3]: 13.5% | NUCLEATED RED BLOOD CELLS [3]: 0.17 /100WBC | PLATELET COUNT [3]: 679.17 x10E3/uL | ALANINE AMINOTRANSFERASE [3]: 42.67 u/L | ALBUMIN [3]: 3.77 G/DL | ALKALINE PHOSPHATASE [3]: 291.17 u/L | ASPARTATE AMINOTRANSFERASE [3]: 74.5 u/L | BLOOD UREA NITROGEN [3]: 15.33 mg/dL | CARBON DIOXIDE [3]: 30 mmol/L | CHLORIDE [3]: 100.83 MEQ/L | CHOLESTEROL [3]: 65.33 mg/dL | CREATININE [3]: 0.15 mg/dL | LACTATE DEHYDROGENASE [3]: 162.67 u/L | LIPASE [3]: 8.5 u/L | PHOSPHORUS [3]: 12.2 mg/dL | POTASSIUM [3]: 5.73 MEQ/L | SODIUM [3]: 144.7 MEQ/L | TOTAL BILIRUBIN [3]: 0.15 mg/dL | TOTAL PROTEIN [3]: 5.87 G/DL | URIC ACID [3]: 1.93 mg/dL | ABSOLUTE EOSINOPHIL [4]: 58.33 CELLS/uL | ABSOLUTE LYMPHOCYTE [4]: 10774 CELLS/uL | ABSOLUTE MONOCYTE [4]: 283.33 CELLS/uL | ABSOLUTE SEGMENTED NEUTROPHIL [4]: 3051 CELLS/uL | BASOPHIL [4]: 0% | ERYTHROCYTE COUNT [4]: 5.86 x10E6/uL | HEMOGLOBIN [4]: 12.93 G/DL | LEUKOCYTE COUNT [4]: 14.17 x10E3/uL | LYMPHOCYTE [4]: 76.33% | MEAN CORPUSCULAR HEMOGLOBIN [4]: 22.1 pg | MEAN CORPUSCULAR HEMOGLOBIN CONCENTRATION [4]: 36.47 G/DL | MEAN CORPUSCULAR VOLUME [4]: 60.53 fL | NEUTROPHIL [4]: 21.33% | NUCLEATED RED BLOOD CELLS [4]: 0.67 /100WBC | PLATELET COUNT [4]: 983 x10E3/uL | ALBUMIN [4]: 4.03 G/DL | ALKALINE PHOSPHATASE [4]: 374 u/L | BLOOD UREA NITROGEN [4]: 11.67 mg/dL | CHLORIDE [4]: 100.33 MEQ/L | CHOLESTEROL [4]: 88.67 mg/dL | CREATININE [4]: 0.15 mg/dL | GLUCOSE [4]: 283.33 mg/dL | LACTATE DEHYDROGENASE [4]: 103.67 u/L | LIPASE [4]: 9 u/L | PHOSPHORUS [4]: 15.53 mg/dL | POTASSIUM [4]: 5.99 MEQ/L | SODIUM [4]: 145.87 MEQ/L | TOTAL BILIRUBIN [4]: 0.13 mg/dL | URIC ACID [4]: 3.3 mg/dL
